Source: paper PMC8566451, “Lead optimization of novel quinolone chalcone compounds by a structure–activity relationship (SAR) study to increase efficacy and metabolic stability” (Scientific Reports, 2021)

How the values were obtained:
HeLa = assay: Sulforhodamine B (SRB) assay; assay type: cell-based; details: Homo sapiens; HeLa cervical cancer cells, 48 h, SRB
Protocol: (§1) The human MDA-MB-231, MCF7, MDA-MB-468, RPMI-8226 and HeLa cell lines were purchased from ATCC and maintained in Dulbecco's Modified Eagle Medium (DMEM)—high glucose supplemented with 10% fetal bovine serum (FBS) and antibiotics/antimycotics. Cell line authentication was carried out by Genetica DNA Laboratories (Burlington, NC) using a short tandem repeat (STR) profiling method (March 2015; July 2015; September 2016). Melanoma cells E-055 (MZ-Mel-3), E-097 (Mel-SOE), E-112 (UKRV-Mel-38), E-157 (UKRV-Mel-17) were obtained from the European Searchable Tumour Line Database (ESTDAB) cell bank (a kind gift of Dr. Graham Pawelec, Tubingen University, Germany). MDA-MB-435 was purchased from the Division of Cancer Treatment and Diagnosis Tumor Repository. All melanoma cells were cultured in Roswell Park Memorial Institute (RPMI) medium supplemented with 10% FBS and P/S/antimycotics. Primary human epidermal melanocytes from normal adult abdominal skin were purchased from ATCC (cat # PCS-200–013) and Cell Applications (cat#104-05a). The melanocytes were cultured in the media supplied by the companies.
(§2) The SRB assay was used to assess drug-induced cytotoxicity and cell proliferation as previously described[2],[33],[34] with a few modifications. Briefly, cells were plated 10,000 to 25,000 cells/cm^2 in 96-well plates (100 µl medium) and allowed to adhere overnight. The cell counts were different for each cell line to ensure optimal cell growth for the duration of the assay. Eight different concentrations of compound solutions using 2–4 times serial dilutions (100 µl). Cells were then incubated for an additional 48 h and then fixed with 100 µl ice-cold 10% (w/v) trichloroacetic acid (TCA) (without removing the cell medium, final concentration, 3.3% of TCA) and stained with 0.4% SRB (w/v) in 1% acetic acid (v/v). The relative growth rate (%) was calculated for each of the compound concentrations according to the following formula: 100 * (T − T0)/(C − T0), in which T is the optical density (OD) after exposure to a certain concentration of the compound after 48 h, T0 is the OD at the start of drug exposure (time zero) and C is the control growth. The GI50 for each compound was obtained from a non-linear sigmoidal dose–response (variable slope) curve fitted by GraphPad Prism v.4.03 software.

MCF7 = assay: Sulforhodamine B (SRB) assay; assay type: cell-based; details: Homo sapiens; MCF7 breast cancer cells, 48 h, SRB
Protocol: as §1, §2

MDA-MB231 = assay: Sulforhodamine B (SRB) assay; assay type: cell-based; details: Homo sapiens, MDA-MB-231; MDA-MB231 breast cancer cells, 48 h, SRB
Protocol: as §1, §2

MDA-MB435 = assay: Sulforhodamine B (SRB) assay; assay type: cell-based; details: Homo sapiens, MDA-MB-435, MDA-MB435 cells, 48 h
Protocol: as §1, §2

MDA-MB468 = assay: Sulforhodamine B (SRB) assay; assay type: cell-based; details: Homo sapiens, MDA-MB-468, MDA-MB468 breast cancer cells, 48 h
Protocol: as §1, §2

MZ-Mel-3 = assay: Sulforhodamine B (SRB) assay; assay type: cell-based; details: MZ-Mel-3 melanoma cells, 48 h
Protocol: as §1, §2

Mel-SOE = assay: Sulforhodamine B (SRB) assay; assay type: cell-based; details: Mel-SOE melanoma cells, 48 h
Protocol: as §1, §2

UKRV-Mel-17 = assay: Sulforhodamine B (SRB) assay; assay type: cell-based; details: UKRV-Mel-17 melanoma cells, 48 h
Protocol: as §1, §2

UKRV-Mel-38 = assay: Sulforhodamine B (SRB) assay; assay type: cell-based; details: UKRV-Mel-38 melanoma cells, 48 h
Protocol: as §1, §2

MDA-MB231-TaxR = assay: Sulforhodamine B (SRB) assay; assay type: cell-based; details: Homo sapiens, MDA-MB231-TaxR paclitaxel-resistant breast cancer cells, 48 h
Description: We had initially determined that quinolone chalcones were promising anti-proliferative through a first round screening and identified CTR-17 and CTR-20 as favorable structures for anticancer activity. […] We carried out a comparative SAR study to determine if we could further optimize the quinolone chalcone to maximize efficacy. The Sulforhodamine B (SRB) assay was used to measure the anti-proliferative/cell killing activities of CTRs, for which several different cell lines were use: the cervical cancer HeLa, the breast cancer cell lines MDA-MB231, MDA-MB468, MDA-MB231TaxR (an induced paclitaxel-resistant sub-cell line of the MDA-MB231[9]) and MCF7. In addition, a subset was tested against the melanoma cell lines MZ-MEL-3.1, Mel-SOE, UKRV-Mel-38, UKRV-Mel-17 and MDA-MB-435 (Table 1, Supplemental Table S1).
as §2

HeLa cells = assay: Cell cycle analysis by flow cytometry; assay type: cell-based, human; details: 3× GI50, 12 or 24 h, HeLa and UKRV-Mel-38 (Supplemental Fig. S11)
Protocol: Figure 5 CTR-21 arrests cells at G2/M, eventually leading to cell death by apoptosis. (a) Effects of CTR-21 on the cell cycle progression of HeLa and E112 cells. […] (b) Cell morphology of CTR-21 arrested cells. HeLa cells were treated with 30 nM of CTR-21 for 12 h, fixed with methanol and immunostained with α-tubulin or γ-tubulin, and counterstained with DAPI. Bar = […]. (c) CTR-21 promotes PARP cleavage. […] GAPDH was used as a loading control.
Cell cycle progression was determined using flow cytometry. UKRV-Mel-38 and HeLa cells were plated onto 10 cm plate at a density of 0.5 million and treated them with or without the compounds the following day for 12, 24 or 48 h. Cells were then harvested and centrifuged at 1000 rpm for 5 min, washed in PBS and then fixed with ice-cold ethanol (70%) for at least 24 h at − 20 °C. The cells were centrifuged, re-suspended in PBS solution, followed by centrifugation. The cell pellet was then stained with 100 μg/mL propidium iodide (PI) and 100 μg/mL RNase A in distilled water for at least 1 h. DNA content was measured using a Beckmann Coulter Cytomics FC500 (Beckman Coulter, Fullerton, CA), and the proportion of cell populations in G0/G1, S, and G2/M phases of cell cycle was calculated on the basis of DNA distribution histograms using CXP software (Beckman Coulter, Fullerton, CA).

[1] = system: cancer cell lines (breast cancer, melanoma, cervical cancer); assay: SRB assay, average GI50 over cancer cell lines; assay type: cell-based
Protocol: as §2

porcine tubulin = molecular target: T1, porcine tubulin (Sus scrofa, UniProt P02550+P02554); assay: In vitro tubulin polymerization assay; assay type: biochemical; details: 3 µM compound, 20 µM porcine tubulin, 37 °C, 60 min
T1 construct: purchased Cytoskeleton Inc., Denver, CO BK011P
T1 sequence (P02554 whole entry): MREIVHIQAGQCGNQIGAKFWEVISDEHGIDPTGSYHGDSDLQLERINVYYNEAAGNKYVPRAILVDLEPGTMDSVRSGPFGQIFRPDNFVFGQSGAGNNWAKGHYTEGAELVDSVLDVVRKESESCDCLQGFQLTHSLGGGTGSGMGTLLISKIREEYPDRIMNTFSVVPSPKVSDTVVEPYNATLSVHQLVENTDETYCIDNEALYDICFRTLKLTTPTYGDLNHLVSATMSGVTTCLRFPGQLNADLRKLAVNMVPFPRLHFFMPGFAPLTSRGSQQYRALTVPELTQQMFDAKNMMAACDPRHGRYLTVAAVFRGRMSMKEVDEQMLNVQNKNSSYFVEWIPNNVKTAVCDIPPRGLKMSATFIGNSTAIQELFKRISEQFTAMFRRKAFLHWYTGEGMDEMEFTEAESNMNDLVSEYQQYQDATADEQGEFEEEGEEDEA
T1 sequence (P02550 whole entry): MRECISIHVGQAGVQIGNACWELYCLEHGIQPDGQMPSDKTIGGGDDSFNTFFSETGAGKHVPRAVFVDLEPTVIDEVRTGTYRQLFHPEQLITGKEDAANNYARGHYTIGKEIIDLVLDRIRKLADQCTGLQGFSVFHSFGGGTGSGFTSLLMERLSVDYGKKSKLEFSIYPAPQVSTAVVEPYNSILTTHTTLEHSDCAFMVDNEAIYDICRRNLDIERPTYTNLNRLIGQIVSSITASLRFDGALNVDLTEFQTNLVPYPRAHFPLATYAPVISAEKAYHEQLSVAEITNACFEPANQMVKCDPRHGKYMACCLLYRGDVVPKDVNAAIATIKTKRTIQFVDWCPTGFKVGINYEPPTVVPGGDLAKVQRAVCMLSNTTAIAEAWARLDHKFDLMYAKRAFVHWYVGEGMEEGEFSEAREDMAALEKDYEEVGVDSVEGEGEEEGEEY
Protocol: Spontaneous polymerization of 20 µM porcine tubulin was initiated with the addition of 1 mmol/L GTP at 37 °C and monitored every minute for 60 min in the presence of the indicated concentration of CTR-21, CTR-32, nocodazole, paclitaxel, or a DMSO vehicle control. To make the graph simpler, only 3 µM concentration is shown. […] A modified Dixon plot was used to determine the inhibitory concentration of CTR-21 and CTR-32 (Ki).
Microtubule assembly was assessed using a Tubulin Polymerization assay kit (BK011P; Cytoskeleton Inc., Denver, CO). […] Polymerization was started by incubating at 37 °C and followed by absorbance readings every 1 min at 340 nm for 1 h using a Synergy H4 plate reader.

| GI50 (HeLa) | GI50 (MCF7) | GI50 (MDA-MB231) | GI50 (MDA-MB435) | GI50 (MDA-MB468) | GI50 (MDA-MB231-TaxR) | GI50 ([1]; average over the cell lines of Table 1 or Supplemental Table S1, read-out: average GI50) | Compound | GI50 (MZ-Mel-3) | GI50 (Mel-SOE) | GI50 (UKRV-Mel-17) | GI50 (UKRV-Mel-38) | cell cycle effect (HeLa cells) | potency compared to CTR-17 [1] | effect on tubulin polymerization (porcine tubulin) |
| --- | --- | --- | --- | --- | --- | --- | --- | --- | --- | --- | --- | --- | --- | --- |
| 6.82 ± 1.39 µM | 11.9 µM | 6.51 ± 1.39 µM | 4720 ± 2760 nM | 3540 ± 60 nM | 7.09 ± 1.06 µM | 7.3 µM | COc1ccc2cc(/C=C/C(=O)c3ccccc3OC)c(=O)[nH]c2c1 [CTR-19, (E)-7-Methoxy-3-(3-(2-methoxyphenyl)-3-oxoprop-1-enyl) quinolin-2(1H)-one] | 6.83 ± 0.957 µM | 10.1 µM | 11.2 µM | 3770 ± 206 nM | arrests cells in G2/M, albeit at a much higher concentration | lower toxicity potency |  |
| 0.008 ± 0.001 µM | 0.006 ± 0.001 µM | 0.003 ± 0.001 µM | 4 ± 1 nM | 9 ± 3 nM | 0.131 ± 0.035 µM |  | CC(=O)O[C@H]1C(=O)[C@@]2(C)[C@H]([C@H](OC(=O)c3ccccc3)[C@]3(O)C[C@H](OC(=O)[C@H](O)[C@@H](NC(=O)c4ccccc4)c4ccccc4)C(C)=C1C3(C)C)[C@]1(OC(C)=O)CO[C@@H]1C[C@@H]2O [Tax, paclitaxel, reference compound] | 0.058 ± 0.015 µM | 0.06 ± 0.016 µM | 0.014 ± 0.004 µM | 6 ± 1 nM |  |  | shorter nucleation phase, steeper growth phase, and reaches steady state quicker |
